Assay results taken from US8372979B2, “Process for the production of high-purity 2,4′-dimethyl-3-piperidino-propiophenone (tolperisone), pharmaceutical compositions that contain the latter, as well as active ingredient formulations that contain tolperisone” (SANOCHEMIA Pharmazeutika AG, priority 2007, dated 2013).
Entries after “also recorded” stand apart in the source; their conditions may differ.

Legend:
[1] = storage stability of tolperisone end product (4-MMPPO formation, HPLC-MS/MS); format: physicochemical
Experimental: Prior art according to AT PS 413 539: The tolperisone crude product is dissolved under reflux for 30 minutes in an 85:15 mixture that consists of 2-butanone (MEK) and isopropanol. The temperature is lowered to 80° C., and the solution is hot-filtered. The solution is allowed to cool to 5° C., and it is stirred for 7 hours. The crystalline precipitate that is obtained is filtered off, washed with 2-butanone, and then dried in a vacuum at 45-85° C.
A proportion of 500 ppm of 4-MMPPO is detected by analysis using HPLC-MS/MS.
The tolperisone crude product is dissolved under reflux for 12 hours in an 85:15 mixture that consists of 2-butanone (MEK) and isopropanol and with the addition of 1% HCl and 5% citric acid. The temperature is lowered to 80° C., and the solution is hot-filtered. The solution is allowed to cool to 5° C., and it is stirred for 7 hours at 5° C. The crystalline precipitate is filtered off, washed with MEK, and then dried in a vacuum at 45° to 85° C.
By analysis using HPLC-MS/MS, a proportion of 4-MMPPO in a range of 0 ppm (not detectable) to 10 ppm is determined.

[2] = preclinical in vitro tests (genotoxicity); conditions: classification also based on chemical structure

stabilizing effect of citric acid present in end product ([1]; Variant IIIa: recrystallization in MEK/IPA + 1% HCl + 5% citric acid)	4-MMPPO values with extended storage ([1]; end product of prior-art process AT 413 539 (recrystallization MEK/IPA, no acid))	Structure (SMILES)	genotoxic or carcinogenic actions [2]
a stabilizing effect could be detected	additional increasing 4-MMPPO values	Cc1ccc(C(=O)C(C)CN2CCCCC2)cc1 (stereo not drawn) [tolperisone, 2,4′-dimethyl-3-piperidino-propiophenone]	–
–	–	C=C(C)C(=O)c1ccc(C)cc1 [4-MMPPO, 2-methyl-1-(4-methylphenyl)-propenone]	genotoxic or carcinogenic actions have been detected; also recorded: potentially genotoxic
